From patent publication US9492497B2, “Peptides for the treatment of cancer” (ÖSTERREICHISCHE AKADEMIE DER WISSENSCHAFTEN, priority 2013, dated 2016)
“Also recorded” adds a separate entry of the source. Read-outs that look alike come from different tables or passages of the source. Marks after values point to notes of the source that are not given here. Positions of bridges follow the written chain, without caps; N, C: chain ends. Residues, ends and D or L forms follow the SMILES beside them. No end group written: not given here.

Columns and labels:
[1] = tested on: normal human dermal fibroblasts (NHDF); test: PI-uptake assay, NHDF; assay type: cell-based; conditions: 8 h
Source text: (§1) Epidermis was separated. […] The pellet was resuspended in melanocyte growth media (Biomedica). […] All cell cultures were periodically checked for mycoplasma.

A375 melanoma cell line = conditions: 20 μM peptide, 8 h, PI-uptake
Source text: as §1

[2] = tested on: U87 mg glioblastoma cell line; conditions: 20 μM peptide, 8 h, PI-uptake
Source text: as §1

[3] = tested on: melanoma cell line SBcl-2; test: PI-uptake assay, SBcl-2; assay type: cell-based, human; conditions: 8 h; for IC50: PI-uptake
Experimental: as §1
Cells were incubated in media containing serum for 8 h in the presence of peptides. Peptide concentrations were varied from 10 to 80 μM.

[4] = tested on: cancer cells (SBcl-2, WM164, TE671); test: PI-uptake assay, cancer cells pooled; assay type: cell-based; conditions: 20 μM peptide; for cytotoxic activity against cancer cells (killing): up to 8 h
Source text: as §1

[5] = tested on: cancer cells (SBcl-2, WM164); conditions: read-out: IC50 against cancer cells (MTS), 24 h, FIG. 6C
Experimental: as §1
(§2) Cell proliferation was measured by using a CellTiter 96 AQ nonradioactive cell proliferation assay (Promega). Cells were plated in 96-well plates and grown until confluence. Peptides were added to a final concentration of 5-100 μM. After incubation for 24 h at 37° C. (5% CO2) MTS [3-(4,5-dimethylthiazol-2yl)-5-(3-carboxymethoxyphenyl)-2-(4-sulfophenyl)-2H-tetrazolium]-phenozine methosulfate solution (20 μl/well) was added and cells were again incubated for 2 h at 37° C. (5% CO2). The MIS compound is bioreduced by cells into a colored formazan product that is soluble in tissue culture medium. The quantity of the formazan product as measured by the amount of 490 nm absorbance is directly proportional to the number of living cells in culture. Data are calculated as a percentage of the control (untreated) samples and represent the average of three wells in one experiment which was repeated three times per cell line.
(§3) To determine long-time toxicity of peptides, a MTS cell proliferation assay was used to elucidate cell viability upon 24 h incubation with variant peptide concentration and human melanoma cell lines SBcl-2 and WM164 and non-differentiated human skin fibroblast cell line NHDF.

[6] = tested on: human skin fibroblast cell line NHDF; test: MTS cell proliferation assay, NHDF; conditions: read-out: IC50 Fibroblasts / NHDF (MTS); MTS cell viability assay, 24 h
Experimental: as §1, §2, §3

human red blood cells [7] = test: Hemolysis; assay type: cell-based; conditions: for % lysis of 2.5% RBCs: one hour, 37° C.; for hemolysis IC50: human red blood cells
Experimental: The hemolytic activity towards human red blood cells (RBCs), which were obtained from heparinized human blood, was determined by the release of hemoglobin following one hour incubation at 37° C. in MHNA (Mueller Hinton cation Non Adjusted). Percentage of hemolysis of RBCs was calculated using 1% Triton as 100% lysis and PBS as 0% lysis, peptide concentration was 500 μg/ml.

[8] = tested on: non-cancer cells (melanocytes, NHDF); test: PI-uptake assay, non-cancer cells pooled; conditions: 20 μM peptide, up to 8 h
Experimental: The primary human melanoma cell line SBcl2 and the metastatic melanoma WM164 were maintained in RPMI (Sigma) supplemented with 2% FBS, 2% L-glutamine and 1% Pen/Strep. Glioblastoma (U87-mg) purchased from CLS (Cell Line Service Heidelberg, Germany) and Rhabdomyosarcoma cell lines (TE671) purchased from ECAAC (Health Protection Agency Culture Collections Salisbury, UK) are cultured in Dulbecco's Modified Eagle Medium (DMEM) with addition of 2 mM Glutamine, 10% FBS (fetal bovine serum). Melanoma cell line A375 CLS (Cell Line Service Heidelberg, Germany) was cultured in Dulbecco's Modified Eagle Medium (DMEM)(PAA) with addition of 2 mM Glutamine and 10% FBS (fetal bovine serum. Human melanocytes used as healthy control cells: were isolated from the foreskin). The foreskin was cut into small pieces and incubated with 0.3% trypsin (PAA) overnight at 4° C. and for one hour at 37° C. Epidermis was separated. Cells were mechanically removed from the cell layer and centrifuged at 300 g for 3 min. The pellet was resuspended in melanocyte growth media (Biomedica). Melanocytes were further cultured in human melanocytes growth medium (PromoCell GmbH). […]
For detection of PI-uptake by fluorescence spectroscopy experiments were performed according to the following protocol. […]
Cytotoxicity was calculated from the percentage of PI positive cells in media alone (P0) and in the presence of peptide (PX). […]

[9] = tested on: tumor over non tumor cells; test: Specificity for tumor over non tumor cells (PI uptake studies); assay type: cell-based, human; conditions: for Cancer Specificity, -fold specificity for melanoma over non tumor skin cells: melanoma (SBcl2 or A375) over melanocytes or NHDF-c, 8 hours, PI uptake
Source text: as §1

[10] = tested on: melanoma cell line SBcl-2; test: MTS cell proliferation assay, SBcl-2; conditions: 24 h; for IC50: read-out: IC50 SBcl-2 (MTS), MTS cell viability assay
Experimental: as §1, §2, §3

[11] = tested on: melanoma metastasis WM164; conditions: for IC50: read-out: IC50 WM164 (MTS), 24 h
Experimental: as §1, §2, §3

[12] = MTS cell proliferation assay, NHDF; conditions: human, NHDF (normal human dermal fibroblasts)
Experimental: as §1, §2, §3

human red blood cells [13] = conditions: 500 μg/ml peptide; from Zweytick et al., J. Biol. Chem. 286 (2011); cited from earlier work
[14] = tested on: melanoma metastasis WM164; test: PI-uptake assay, WM164; assay type: cell-based, human; conditions: 20 μM peptide
Experimental: as §1
(§4) Cells were incubated in media containing serum for 8 h in the presence of peptides. Peptide concentrations were varied from 10 to 80 μM. FIG. 3 illustrates that the peptide moiety PEP-322 is only minor active against the melanoma cell line SBcl-2 with less than 5% killing at a peptide concentration of 80 μM, as well as against melanocytes with a moderate two-fold selectivity for WM164 cells at 20 μM peptide concentration (FIG. 3C).

[15] = tested on: differentiated non-tumorigenic melanocytes; test: PI-uptake assay, melanocytes; assay type: cell-based, human; conditions: 20 μM peptide, 8 h
Experimental: as §1, §4

[16] = tested on: caspase-3/7 activity of melanoma cell line SBcl-2; test: Spectrofluorimetric analysis of caspase-3/7 activity; assay type: cell-based, human; conditions: SBcl-2, 10-20 μM peptide, 4 hours
Experimental: Spectrofluorimetric analysis of caspase-3/7 activity 5×10^5 cells/ml were seeded into 96-well plate and grown overnight at 37° C. and 5% CO2. Cells were incubated with different concentrations of peptide for 4 hours. Apo-ONE® caspase-3/7 reagent was added in a 1:1 volume ratio and cells were incubated for 4 hours. Cells were then analyzed by fluorescence spectroscopy (GloMax®-Multi+ Microplate Multimode Reader with Instinc™). Untreated cells were used as negative control. Analysis was performed with Apo-ONE® Homogeneous Caspase-3/7 Assay (see FIG. 7).

[17] = Tryptophan fluorescence and quenching, cancer mimic; conditions: in presence of target lipid PS
Experimental: (§5) Tryptophan fluorescence spectra were obtained at room temperature using an excitation wavelength of 282 nm and a slit width of 5 nm for excitation and emission monochromators. Quenching of Tryptophan was carried out in the presence and absence of phospholipid liposomes (lipid to peptide ratio 25:1) using 0.1, 0.4 and 0.7 M acrylamide. The data were analyzed according to the Stern-Volmer equation: F0/F=1+KSV[Q] where F0 and F represent the fluorescence emission intensities in the absence and presence of the quencher molecule (Q) and KSV is the Stern-Volmer quenching constant, which is a quantitative measure for the accessibility of tryptophan to acrylamide (Tao, T. and Cho, J. Biochemistry 18(1979), 2759-2765).

[18] = Tryptophan fluorescence and quenching, healthy mimic; conditions: in presence of PC
Experimental: as §5

## CC[C@H](C)[C@H](NC(=O)[C@@H]1CSSC[C@H](NC(=O)[C@H](CCCCN)NC(=O)[C@@H](N)[C@@H](C)O)C(=O)N[C@@H](Cc2ccccc2)C(=O)N[C@@H](CCC(N)=O)C(=O)N[C@@H](Cc2c[nH]c3ccccc23)C(=O)N[C@@H](CCC(N)=O)C(=O)N[C@@H](CCCNC(=N)N)C(=O)N[C@@H](CC(N)=O)C(=O)N[C@@H](CCSC)C(=O)N[C@@H](CCCNC(=N)N)C(=O)N[C@@H](CCCCN)C(=O)N[C@@H](C(C)C)C(=O)N[C@@H](CCCNC(=N)N)C(=O)NCC(=O)N2CCC[C@H]2C(=O)N2CCC[C@H]2C(=O)N[C@@H](C(C)C)C(=O)N[C@@H](CO)C(=O)N1)C(=O)N[C@@H](CCCCN)C(=O)N[C@@H](CCCNC(=N)N)C(=O)N[C@@H](CC(=O)O)C(=O)N[C@@H](CO)C(=O)O [hLFcin (37-61)] (H-TKCFQWQRNMRKVRGPPVSCIKRDS-OH; disulfide 3-20)
[1]
  toxicity against normal human dermal fibroblasts NHDF-c: no toxicity
A375 melanoma cell line
  cytotoxicity against melanoma cell line A375: only weak activity
[2]
  cytotoxicity against glioblastoma cell line U87 mg: only weak activity

## FWQRRIRRWRRFWQRRIRRWRR-NH2 [DIM-PEP-318]
[3]
  IC50: < 20 µM
[1]
  IC50: < 20 µM
[4]
  cytotoxic activity against cancer cells (killing): up to 90%
[5]
  IC50: < 10 µM
[6]
  IC50: 10 µM
Human red blood cells [7]; 500 μg/ml peptide, 2.5% red blood cells
  hemolytic activity (in words): not hemolytic
Human red blood cells [7]; 500 μg/ml peptide
  % lysis of 2.5% RBCs: 2.87 ± 0.57%
Human red blood cells [7]
  hemolysis IC50: >500 µg/mL
[8]
  non-cancer toxicity (melanocytes, NHDF): highly active

## PFFWRIRIRRPFFWRIRIRR-NH2 [DIM-PEP-324]
[9]
  activity and selectivity for cancer cells (in words): selective for cancer cells
[9]; 20 μM peptide
  Cancer Specificity, -fold specificity for melanoma over non tumor skin cells: yes (7fold) (DIM-),

## PFWRIRIRR PFWRIRIRR (PFWRIRIRRPFWRIRIRR) [DIM-PEP-322]
[9]
  activity and selectivity for cancer cells (in words): selective for cancer cells
[9]; 20 μM peptide
  Cancer Specificity, -fold specificity for melanoma over non tumor skin cells: yes (50fold)

## PFWRIRIRR RRIRIRWFP (PFWRIRIRRRRIRIRWFP) [R-DIM-PEP-322]
[4]
  time to highest activity against cancer cells: ≥ 8 h
[9]
  activity and selectivity for cancer cells (in words): selective for cancer cells
[9]; 20 μM peptide
  Cancer Specificity, -fold specificity for melanoma over non tumor skin cells: (DIM-), 20fold

## PFWRIRIRR-NH2 [PEP-322, PFWRIRIRR-NH2]
[3]
  IC50: > 80 µM
[1]
  IC50: > 80 µM
[10]; 100 μM peptide, MTS
  cell viability SBcl-2: 40%
[10]
  IC50: 90 µM
[11]; 100 μM peptide, 24 h, MTS
  cell viability WM164: more than 70%
[11]
  IC50: > 100 µM
[12]
  viability at 24 h, 100 μM: > 70%
[6]
  IC50: > 100 µM
Human red blood cells [13]
  % lysis of 2.5% RBCs: 2^b %

## PFWRIRIRRD DRRIRIRWFP (PFWRIRIRRDDRRIRIRWFP) [R-DIM-PEP-323]
[9]
  activity and selectivity for cancer cells (in words): selective for cancer cells

## PFWRIRIRRPRRIRIRWFP-NH2 [R-DIM-P-PEP-322, PFWRIRIRRPRRIRIRWFP-NH2]
[3]; 20 μM peptide
  PI positive SBcl-2 cells: more than 80%
[14]
  sensitivity of WM164 for the peptide: highly sensitive
[15]
  melanocytes killed: less than 1%
[1]
  IC50: > 80 µM
[4]
  time to highest activity against cancer cells: 4 to 8 h
  cytotoxic activity against cancer cells (killing): up to 80%
[9]
  activity and selectivity for cancer cells (in words): cancer active and specific; also recorded: selective for cancer cells
[9]; 20 μM peptide, 8 h
  specificity for cancer cells (PI-uptake ratio SBcl-2 vs. melanocytes): more than 100 fold
[9]; 20 μM peptide
  Cancer Specificity, -fold specificity for melanoma over non tumor skin cells: (R-DIM-), >100fold)
[10]
  IC50: 8 µM
[11]
  IC50: 15 µM
[6]
  IC50: 80 µM
Human red blood cells [7]; 500 μg/ml peptide
  % lysis of 2.5% RBCs: 0.84 ± 0.63%
Human red blood cells [7]
  hemolysis IC50: >500 µg/mL
[16]
  increase of green fluorescence (caspase-3/7 activity): 200 fold
[17]
  blue shift of Trp emission wavelength, PS: blue shift is only detected in presence of the target lipid PS
[18]
  blue shift of Trp emission wavelength, PC: no blue shift appears

## PFWRRRIRIRR RRIRIRRRWFP (PFWRRRIRIRRRRIRIRRRWFP) [R-DIM-PEP-337]
[9]
  activity and selectivity for cancer cells (in words): less specific
[9]; 20 μM peptide
  Cancer Specificity, -fold specificity for melanoma over non tumor skin cells: (2fold) (R-DIM-)

## RWKRINRQWFFWQRNIRKWR-NH2 [R-DIM-PEP-316]
[9]
  activity and selectivity for cancer cells (in words): specific; also recorded: selective for cancer cells
[9]; 20 μM peptide
  Cancer Specificity, -fold specificity for melanoma over non tumor skin cells: Yes (15fold) (R-DIM-)
